Experimental findings from PMC4978465 (Nature, 2015) are described below.

One assay has as its target T1, BxGH99 (Bacteroides xylanisolvens, UniProt D6D1V7).
T1 sequence (D6D1V7 13-380): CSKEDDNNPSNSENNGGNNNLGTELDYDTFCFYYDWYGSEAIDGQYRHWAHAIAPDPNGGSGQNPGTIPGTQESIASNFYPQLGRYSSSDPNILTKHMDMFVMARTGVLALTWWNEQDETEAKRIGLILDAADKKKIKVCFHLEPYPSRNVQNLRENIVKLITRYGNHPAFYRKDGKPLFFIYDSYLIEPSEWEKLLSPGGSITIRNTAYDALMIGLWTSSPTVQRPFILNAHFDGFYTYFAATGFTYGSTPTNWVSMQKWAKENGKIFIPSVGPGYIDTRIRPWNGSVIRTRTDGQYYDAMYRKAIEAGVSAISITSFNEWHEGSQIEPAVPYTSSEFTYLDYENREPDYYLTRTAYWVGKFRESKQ
The experiment in a line: X-ray crystal structure. It is filed as binding. As to conditions: crystal soak about 10 mM.

A further assay addresses T2, BT3775 (Bacteroides thetaiotaomicron, UniProt Q8A191).
T2 sequence (Q8A191 1-224): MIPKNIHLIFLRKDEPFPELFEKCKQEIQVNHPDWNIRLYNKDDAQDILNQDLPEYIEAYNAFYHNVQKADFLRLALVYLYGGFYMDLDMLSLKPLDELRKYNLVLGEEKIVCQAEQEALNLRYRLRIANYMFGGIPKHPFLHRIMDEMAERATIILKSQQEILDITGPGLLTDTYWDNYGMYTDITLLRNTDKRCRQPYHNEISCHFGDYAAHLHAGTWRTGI
The experiment in a line: HPAEC, MALDI-TOF, linkage analysis. It is filed as biochemical. The following applies: 10 mM MnCl2, pH 7.5, 37 °C.

For the molecule `OC[C@H]1O[C@H](O[C@@H]2C(O)O[C@H](CO)[C@@H](O)[C@@H]2O)[C@@H](O)[C@@H](O)[C@@H]1O` (stereo partly drawn) [α-1,2-mannobiose], the X-ray crystal structure result on BxGH99 (ternary complex with Man-IFG) was “ternary with Man-IFG and α-1,2-mannobiose, was achieved by soaking native BxGH99 crystals”. In the case of `Nc1nc2c(ncn2[C@@H]2O[C@H](COP(=O)(O)OP(=O)(O)O[C@H]3O[C@H](CO)[C@@H](O)[C@H](O)[C@@H]3O)[C@@H](O)[C@H]2O)c(=O)[nH]1` [GDP-Mannose], the “HPAEC, MALDI-TOF, linkage analysis” value on BT3775 (acceptor mannose) was “using mannose as an acceptor and GDP-α-Man as the donor”.

Turning to `OC[C@H]1CNC[C@@H](O[C@H]2O[C@H](CO)[C@@H](O)[C@H](O)[C@@H]2O)[C@@H]1O` [Man-IFG], the X-ray crystal structure result at BxGH99 (ternary complex with alpha-1,2-mannobiose) was “ternary with Man-IFG and α-1,2-mannobiose, was achieved by soaking native BxGH99 crystals”.

Regarding `OC[C@H]1OC(O)[C@@H](O)[C@@H](O)[C@@H]1O` (stereo partly shown) [mannose], the “HPAEC, MALDI-TOF, linkage analysis” value on BT3775 (donor GDP-mannose) is on record as “mannobiose produced by BT3775 from mannose”.
